PMC4404319 (ACS Chemical Neuroscience, 2015)
Entries after “also recorded” stand apart in the source; their conditions may differ.

Tests used:
P-gp = test: in vitro; conditions: human, Caco-2
MDCK / BCRP = test: BCRP-MDCK two-way permeability / BCRP substrate
C57BL/6 mice = test: Modified SHIRPA adverse pharmacology screen; format: in vivo; conditions: 50 and 150 mg/kg, 24 h observation
MAO-A = target: T1, MAO-A (Homo sapiens, UniProt P21397); test: Monoamine oxidase inhibition; conditions: 0.01–25 μM
T1 sequence (P21397 1-527): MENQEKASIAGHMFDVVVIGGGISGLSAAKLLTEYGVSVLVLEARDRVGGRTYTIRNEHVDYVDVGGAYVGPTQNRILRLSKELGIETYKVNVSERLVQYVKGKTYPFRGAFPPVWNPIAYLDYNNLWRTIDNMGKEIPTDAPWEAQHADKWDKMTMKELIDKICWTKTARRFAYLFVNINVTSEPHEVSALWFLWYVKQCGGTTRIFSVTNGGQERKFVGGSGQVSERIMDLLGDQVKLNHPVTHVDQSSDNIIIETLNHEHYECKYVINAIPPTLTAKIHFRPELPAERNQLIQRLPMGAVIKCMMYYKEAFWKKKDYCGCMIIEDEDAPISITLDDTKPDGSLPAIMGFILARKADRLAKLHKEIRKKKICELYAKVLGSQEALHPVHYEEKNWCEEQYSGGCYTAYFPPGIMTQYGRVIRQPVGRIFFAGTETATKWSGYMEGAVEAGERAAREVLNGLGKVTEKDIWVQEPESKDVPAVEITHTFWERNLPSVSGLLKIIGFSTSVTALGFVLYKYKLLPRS

Caco-2 / P-gp = test: Caco-2 two-way permeability / P-gp substrate; conditions: Caco-2, second of two values given 'respectively'
MAO-B = target: T2, MAO-B (Homo sapiens, UniProt P27338); test: Monoamine oxidase inhibition; conditions: 0.01–25 μM
T2 sequence (P27338 1-520): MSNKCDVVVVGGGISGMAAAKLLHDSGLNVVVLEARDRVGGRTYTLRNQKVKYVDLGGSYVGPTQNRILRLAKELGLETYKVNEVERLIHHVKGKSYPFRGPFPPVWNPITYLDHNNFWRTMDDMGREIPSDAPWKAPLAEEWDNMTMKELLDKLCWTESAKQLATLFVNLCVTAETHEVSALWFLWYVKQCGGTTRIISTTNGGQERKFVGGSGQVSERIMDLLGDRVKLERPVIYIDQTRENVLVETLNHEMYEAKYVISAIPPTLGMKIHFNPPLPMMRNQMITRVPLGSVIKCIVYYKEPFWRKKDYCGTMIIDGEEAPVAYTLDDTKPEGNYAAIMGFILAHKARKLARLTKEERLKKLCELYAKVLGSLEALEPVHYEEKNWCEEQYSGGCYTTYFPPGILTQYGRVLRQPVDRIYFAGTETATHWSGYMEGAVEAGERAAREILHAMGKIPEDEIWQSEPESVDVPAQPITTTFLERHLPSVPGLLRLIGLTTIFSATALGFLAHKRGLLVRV

[1] = test system: APP/PS1 transgenic (Tg) mouse; test: Behavior in APP/PS1 transgenic mice, preventative paradigm
[2] = test system: Salmonella typhimurium TA98 and TA100; test: Ames bacterial reverse mutation assay; conditions: ± metabolic activation, up to 5 μg/plate
BCRP = test: in vitro; conditions: dog
in vivo = conditions: male, Sprague-Dawley, rat, 5 mg/kg
in vitro = conditions: rat, liver microsomes, pH 7.4
166 GPCRs = test: Functional GPCR agonist and antagonist screen, whole panel; format: cell-based; conditions: agonist 12 500 nM, antagonist 10 000 nM
Chemical stability = format: physicochemical; conditions: pH 1–13, 24 h, 37 °C
[3] = 2.5 mg/kg, oral, daily, 8 weeks to 3–4 months of age

CN1CCN(c2cc(-c3ccncc3)c(-c3ccc4ccccc4c3)nn2)CC1 [MW150, 6-(4-Methylpiperazin-1-yl)-3-(naphthalen-2-yl)-4-(pyridin-4-yl)pyridazine] gave a Papp A→B at 2 h, 5 μM (P-gp) of 33.5 ×10⁻⁶ cm/s, a Papp B→A at 2 h, 5 μM (P-gp) of 31.2 ×10⁻⁶ cm/s and a recovery (P-gp) of 71%. For the same compound, the MDCK permeability classification (MDCK / BCRP) was “high cell permeability; also recorded: highly permeable”, the “percent recovery, second value” (MDCK / BCRP; MDCK, second of two values given 'respectively') was 67% and the BCRP substrate status (MDCK / BCRP; effect of 10 μM Ko143 on bidirectional flux) was “not a substrate; also recorded: not BCRP substrate”. For the same compound, the “adverse pharmacology, clinical observation” value (C57BL/6 mice) was “no differences or adverse events were detected”, the MAO-A inhibition (MAO-A) was “negative” and the “percent recovery, second value” (Caco-2 / P-gp) was 61%. For the same compound, the MAO-B inhibition (MAO-B) was “negative”, the “RAWM (spatial memory)” value [1, 3] was “improved; also recorded: suppression of the deficits” and the “contextual fear memory (associative memory)” value [1, 3] was “improved; also recorded: suppression of the deficits”. The “dose dependence of behavior end points” value ([1]; Figure S2) was “dose dependent”, the “performance of WT mice” value ([1]; WT littermates, 2.5 mg/kg oral daily) was “did not affect” and the sensory threshold ([1]; control behavior) was “No difference”. For the same compound, the visible platform task ([1]; control behavior) was “did not influence; also recorded: No difference”, the cued fear memory ([1]; control behavior, hippocampus-independent) was “no effect; also recorded: No difference” and the open field tests ([1]; control behavior, locomotor activity and anxiety) was “did not influence; also recorded: No difference”. For the same compound, the AMES test [2] was “negative”, the Papp A→B at 2 h, 5 μM (BCRP) was 20.7 ×10⁻⁶ cm/s and the Papp B→A at 2 h, 5 μM (BCRP) was 25.1 ×10⁻⁶ cm/s. It also gave a recovery (BCRP) of 66%, a half-life (in vivo) of over 180 min and a half-life at 1 μM (in vitro) of 43 ± 4 min. For the same compound, the microsomal CLint at 1 μM (in vitro) was 20 µL/min/mg, the “functional GPCR off-target activity” value (166 GPCRs) was “no agonist or antagonist activity; also recorded: negative” and the chemical stability (Chemical stability) was “chemically stable; also recorded: stable at pH (1–13), 24 h, 37 °C”.
